Earlier results on 1 molecule are cited in patent US20090048316A1, “Pharmaceutical composition comprising candesartan cilexetil” (priority 2007, published 2009).

Read-outs that look alike come from different tables or passages of the source.

Turning to `CCOc1nc2cccc(C(=O)OC(C)OC(=O)OC3CCCCC3)c2n1Cc1ccc(-c2ccccc2-c2nnn[nH]2)cc1` (racemic) [Candesartan cilexetil, (±)-1-[[(cyclohexyloxy)carbonyl]oxy]ethyl-2-ethoxy-1-[[2′-(1H-tetrazol-5-yl)[1,1′biphenyl]-4-yl]methyl]-1H-benzimidazole-7-carboxylate], the solubility result is, setting by setting: (in methanol) “practically insoluble”; (in water) “practically insoluble”.
